Results taken from US20070254023A1, “Perorally Administrable Antimicrobial Composition” (priority 2004, published 2007).

System: bifidobacteria
Assay: Effect of peroral administration on bifidobacteria of the gut in CBA mice
Assay type: in vivo
Settings: ten-day peroral course, tetracycline 750 mg/kg
Description: Comparative experimental trials of the effect of peroral administration of antibiotics and an antibacterial composition comprising an antibiotic and lactulose on gut organisms and liver condition in CBA mice.
Models of experimental pathology caused by peroral administration of ampicillin and tetracycline in large doses were used.

CN(C)[C@@H]1C(O)=C(C(N)=O)C(=O)[C@@]2(O)C(O)=C3C(=O)c4c(O)cccc4[C@@](C)(O)[C@H]3C[C@@H]12 [tetracycline]
contents of bifidobacteria in the large intestine: reduced the contents of bifidobacteria
